This assay deals with cAMP-specific 3',5'-cyclic phosphodiesterase 4D (Homo sapiens, UniProt Q08499). The assay can be described thus: Inhibitory Activity Assay. As to the method:
Necessary amounts of test compounds were weighed, and 100% dimethylsulfoxide (DMSO) was added thereto to adjust the concentration to 10 mM. The solutions were stored in a freezer as stock solutions of each test compound. After being thawed when required, the solutions were diluted 20-fold with 100% DMSO to give a 500 μM concentration. Further, 10-fold serial dilutions were made with 100% DMSO to prepare test compounds of different concentrations. 2 μl of solutions containing one of each of the test compound were separately added into 1.2 ml tubes in which 23 μl of 20 mM Tris-HCl (pH 7.4) had been placed beforehand. 25 μl of a PDE4D enzyme solution diluted at an optimal ratio determined in (3) above were added on ice to each of the tubes, and 50 μl of a substrate solution containing 2 μM[3H] cAMP prepared by dilution with a 20 mM Tris-HCl (pH 7.4) containing 10 mM MgCl2 was added thereto. The final DMSO concentration in the reaction liquid was 2%. After mixing, the mixture was incubated for 10 minutes at 30° C. At the completion of the incubation, the tubes were placed in a bath containing boiling water for 3 minutes, and the reaction was stopped. After cooling the tubes in ice, 25 μl solution of 0.2 mg/ml snake venom was added thereto, and after mixing the mixture was incubated for 10 minutes at 30° C. […] 3H radioactivity (cpm) was measured using a TopCount.

Sequence of cAMP-specific 3',5'-cyclic phosphodiesterase 4D (Q08499 whole entry): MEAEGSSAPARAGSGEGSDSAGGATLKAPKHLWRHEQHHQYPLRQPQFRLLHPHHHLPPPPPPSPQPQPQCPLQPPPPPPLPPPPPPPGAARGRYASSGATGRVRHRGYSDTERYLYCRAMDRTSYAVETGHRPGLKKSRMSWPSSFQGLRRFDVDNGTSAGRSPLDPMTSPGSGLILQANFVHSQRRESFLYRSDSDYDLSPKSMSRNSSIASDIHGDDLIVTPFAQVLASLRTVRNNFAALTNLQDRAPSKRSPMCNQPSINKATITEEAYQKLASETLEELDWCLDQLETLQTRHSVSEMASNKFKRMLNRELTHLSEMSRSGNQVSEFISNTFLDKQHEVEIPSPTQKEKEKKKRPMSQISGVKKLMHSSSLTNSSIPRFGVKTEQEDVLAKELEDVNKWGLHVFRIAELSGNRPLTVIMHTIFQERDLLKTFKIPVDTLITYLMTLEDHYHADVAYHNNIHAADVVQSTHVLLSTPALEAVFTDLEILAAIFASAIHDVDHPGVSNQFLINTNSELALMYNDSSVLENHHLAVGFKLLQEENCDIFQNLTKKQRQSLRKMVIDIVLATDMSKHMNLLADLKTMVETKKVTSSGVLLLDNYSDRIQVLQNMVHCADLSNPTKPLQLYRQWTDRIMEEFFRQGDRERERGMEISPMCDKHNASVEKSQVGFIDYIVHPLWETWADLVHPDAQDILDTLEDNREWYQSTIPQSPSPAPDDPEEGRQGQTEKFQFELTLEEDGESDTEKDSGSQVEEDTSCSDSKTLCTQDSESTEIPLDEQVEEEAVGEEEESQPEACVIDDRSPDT

In turn, `COc1ccc(-c2nc(CCC(=O)c3ncccc3OC)co2)cc1OCC1CC1` [USRE46792, 126] registered an IC50 below 50 nM.

Usually IC50 stands for the midpoint of a concentration-inhibition curve. Read a high IC50 as a need for much substance.

(Values after BindingDB's records for patent USRE46792 (Otsuka Pharmaceutical, 2018).)
